In series [1] the target is T1, HDAC7 (Homo sapiens, UniProt Q8WUI4).
T1 construct: made in house; host or cells: HEK293/T17 cells, transient transfection
T1 sequence (Q8WUI4 1-952): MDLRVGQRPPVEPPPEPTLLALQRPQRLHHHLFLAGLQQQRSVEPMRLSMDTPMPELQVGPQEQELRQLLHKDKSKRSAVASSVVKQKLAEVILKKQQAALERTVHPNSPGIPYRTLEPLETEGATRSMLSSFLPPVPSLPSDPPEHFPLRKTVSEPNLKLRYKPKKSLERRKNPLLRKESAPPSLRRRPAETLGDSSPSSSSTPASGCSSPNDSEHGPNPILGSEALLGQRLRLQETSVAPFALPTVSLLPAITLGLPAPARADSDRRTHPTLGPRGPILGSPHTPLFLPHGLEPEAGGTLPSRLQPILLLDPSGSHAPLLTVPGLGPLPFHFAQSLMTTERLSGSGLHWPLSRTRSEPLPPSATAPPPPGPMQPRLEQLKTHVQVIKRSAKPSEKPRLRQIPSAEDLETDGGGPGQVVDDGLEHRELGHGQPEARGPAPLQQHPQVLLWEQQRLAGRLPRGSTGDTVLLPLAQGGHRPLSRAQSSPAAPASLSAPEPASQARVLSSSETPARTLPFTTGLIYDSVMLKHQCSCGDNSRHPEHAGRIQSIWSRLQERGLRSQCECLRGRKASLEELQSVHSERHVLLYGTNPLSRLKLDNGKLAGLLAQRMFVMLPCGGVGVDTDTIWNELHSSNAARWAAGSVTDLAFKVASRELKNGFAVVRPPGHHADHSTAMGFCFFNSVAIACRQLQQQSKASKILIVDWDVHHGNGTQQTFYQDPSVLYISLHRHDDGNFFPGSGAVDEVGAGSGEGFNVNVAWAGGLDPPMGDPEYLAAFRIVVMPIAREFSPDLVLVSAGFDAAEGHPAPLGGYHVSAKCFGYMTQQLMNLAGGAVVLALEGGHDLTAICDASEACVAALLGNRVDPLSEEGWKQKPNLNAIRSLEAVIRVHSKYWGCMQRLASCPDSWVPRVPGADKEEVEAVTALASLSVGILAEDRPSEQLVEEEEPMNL
Kind of series: Fluorescence-based HDAC inhibition assay, HDAC7. Type of series: biochemical. To be noted: for IC50: 10 μM Boc-Lys(TFA)-AMC substrate, mean of two experiments ± SEM. The method, then: (§1) Briefly, transiently transfected cells were harvested three days post-transfection and the cell pellets resuspended in a lysis buffer (50 mM Tris, 150 mM NaCl, 10 mM KCl, 2 mM MgCl2, 10% glycerol, 0.2% NP-40, 2 Units/mL benzonase, pH 8) supplemented with a cocktail of protease inhibitors (Roche, Basel, Switzerland). Cells were lysed by sonication (30 W; 3×20 s) on ice, and the cell lysate cleared by centrifugation at 40 000×g for 30 min at 4° C. […] Purified proteins were concentrated to 1 mg/mL, aliquoted, flash-frozen in liquid nitrogen, and stored at −80° C. until further use.
(§2) Briefly, individual HDACs were preincubated with dilution series of tested inhibitors (0-100 μM) in a 384-well plate in the total volume of 40 μL for 10 min at 37° C. in a reaction buffer comprising 50 mM HEPES, 140 mM NaCl, 10 mM KCl, 1 mM TCEP, 0.1% BSA, pH 7.4. Deacetylation reaction was started by the addition of 10 μL of a 10 μM substrate into the HDAC/inhibitor mixture. Following the 30 min incubation at 37° C., the reaction was terminated by the addition of 25 μL of the trypsin solution (4 mg/mL). Fluorescence development by trypsin was carried out at 37° C. for 15 and 60 min for Ac-GAK(Ac)-AMC and Boc-Lys(TFA)-AMC substrate, respectively. […] Non-linear regression analysis was employed to calculate IC50 values using the GraphPad Prism software. […] Reactions without the enzyme or the inhibitor were used to define 0% and 100% of the HDAC activity, respectively.

Series [2] in a line: Stability in simulated gastric fluid (SGF).
Series [3] can be described thus: Human plasma stability.
Series [4] deals with T2, HDAC2 (Homo sapiens, UniProt Q92769).
T2 construct: made in house; host or cells: HEK293/T17 cells, transient transfection
T2 sequence (Q92769 whole entry): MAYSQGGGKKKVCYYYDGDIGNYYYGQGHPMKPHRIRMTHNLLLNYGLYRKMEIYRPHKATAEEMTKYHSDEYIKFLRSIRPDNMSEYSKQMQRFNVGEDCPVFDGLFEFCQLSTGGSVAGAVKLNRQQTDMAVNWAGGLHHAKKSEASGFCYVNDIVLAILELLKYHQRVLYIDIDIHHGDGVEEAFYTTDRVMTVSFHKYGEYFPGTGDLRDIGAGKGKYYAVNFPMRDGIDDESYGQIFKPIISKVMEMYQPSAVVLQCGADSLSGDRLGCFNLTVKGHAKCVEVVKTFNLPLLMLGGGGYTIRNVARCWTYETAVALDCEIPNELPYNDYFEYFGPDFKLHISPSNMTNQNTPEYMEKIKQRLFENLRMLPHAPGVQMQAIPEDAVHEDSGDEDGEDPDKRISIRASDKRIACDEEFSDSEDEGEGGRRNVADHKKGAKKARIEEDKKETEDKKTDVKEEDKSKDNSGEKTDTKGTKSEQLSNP
The series is described as follows: Fluorescence-based HDAC inhibition assay, HDAC2. Type of series: biochemical. Particulars: for IC50: 10 μM Ac-GAK(Ac)-AMC substrate, mean of two experiments ± SEM. As for the experimental part:
as §1, §2

Series [5] concerns the target T3, HDAC1 (Homo sapiens, UniProt Q13547).
T3 construct: made in house; host or cells: HEK293/T17 cells, transient transfection
The series is described as follows: Fluorescence-based HDAC inhibition assay, HDAC1. Type of series: biochemical. The method, then: as §1, §2

For series [6], the target named is T4, HDAC5 (Homo sapiens, UniProt Q9UQL6).
T4 construct: made in house; host or cells: HEK293/T17 cells, transient transfection
T4 sequence (Q9UQL6 whole entry): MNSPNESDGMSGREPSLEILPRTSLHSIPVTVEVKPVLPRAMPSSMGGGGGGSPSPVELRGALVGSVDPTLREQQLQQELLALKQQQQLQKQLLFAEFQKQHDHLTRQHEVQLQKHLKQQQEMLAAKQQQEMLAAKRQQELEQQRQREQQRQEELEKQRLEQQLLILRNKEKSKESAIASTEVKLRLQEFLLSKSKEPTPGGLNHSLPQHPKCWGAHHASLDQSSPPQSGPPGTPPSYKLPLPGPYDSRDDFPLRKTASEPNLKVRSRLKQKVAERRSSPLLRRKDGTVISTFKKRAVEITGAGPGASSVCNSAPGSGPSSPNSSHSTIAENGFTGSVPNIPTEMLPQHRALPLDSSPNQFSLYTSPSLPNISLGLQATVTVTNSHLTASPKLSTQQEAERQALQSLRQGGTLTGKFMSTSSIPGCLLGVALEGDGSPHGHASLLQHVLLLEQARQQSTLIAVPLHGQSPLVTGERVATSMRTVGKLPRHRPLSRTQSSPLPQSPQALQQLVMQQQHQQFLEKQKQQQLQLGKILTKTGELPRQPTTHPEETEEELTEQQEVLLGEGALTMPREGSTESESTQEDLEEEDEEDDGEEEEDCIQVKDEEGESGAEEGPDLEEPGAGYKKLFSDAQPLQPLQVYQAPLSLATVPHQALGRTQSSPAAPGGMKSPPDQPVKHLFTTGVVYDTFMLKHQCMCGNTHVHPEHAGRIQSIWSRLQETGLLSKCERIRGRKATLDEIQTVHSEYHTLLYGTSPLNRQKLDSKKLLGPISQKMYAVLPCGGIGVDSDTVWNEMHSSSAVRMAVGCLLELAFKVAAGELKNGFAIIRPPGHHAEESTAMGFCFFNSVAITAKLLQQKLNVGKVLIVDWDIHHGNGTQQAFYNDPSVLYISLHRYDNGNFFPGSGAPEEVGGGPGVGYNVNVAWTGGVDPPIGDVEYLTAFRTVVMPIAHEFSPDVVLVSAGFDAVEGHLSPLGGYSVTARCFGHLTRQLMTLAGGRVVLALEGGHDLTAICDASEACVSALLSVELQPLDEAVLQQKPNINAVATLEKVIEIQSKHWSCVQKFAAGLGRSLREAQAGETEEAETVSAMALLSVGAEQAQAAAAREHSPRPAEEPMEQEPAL
The series is described as follows: Fluorescence-based HDAC inhibition assay, HDAC5. Type of series: biochemical. To be noted: for IC50: 10 μM Boc-Lys(TFA)-AMC substrate, mean of two experiments ± SEM. As for the experimental part:
as §1, §2

The subject of series [7] is plasma protein. Kind of series: Protein binding in human plasma. Particulars: plasma protein-bound fraction, mean with standard error.
Series [8] has as its target HDAC4 (Homo sapiens, UniProt P56524). Kind of series: Fluorescence-based HDAC inhibition assay, HDAC4. Type of series: biochemical. Particulars: for IC50: 10 μM Boc-Lys(TFA)-AMC substrate, mean of two experiments ± SEM. The method, then: as §1, with “Large scale expression of human HDACs was carried out in HEK293/T17 cells essentially as described previously (see, e.g., Falkenberg et al., Nat. Rev. Drug Discov. 13, 673-691 (2014); or Matthias et al., Cell Cycle 7: 7-10 (2008)). Briefly,” for “Briefly,”
Briefly, individual HDACs were preincubated with dilution series of tested inhibitors (0-100 μM) in a 384-well plate in the total volume of 40 μL for 10 min at 37° C. in a reaction buffer comprising 50 mM HEPES, 140 mM NaCl, 10 mM KCl, 1 mM TCEP, 0.1% BSA, pH 7.4. Deacetylation reaction was started by the addition of 10 μL of a 10 μM substrate into the HDAC/inhibitor mixture. Following the 30 min incubation at 37° C., the reaction was terminated by the addition of 25 μL of the trypsin solution (4 mg/mL). Fluorescence development by trypsin was carried out at 37° C. for 15 and 60 min for Ac-GAK(Ac)-AMC and Boc-Lys(TFA)-AMC substrate, respectively. Released aminomethylcoumarin was quantified using a CLARIOstar fluorimeter with the excitation and emission wavelengths set to 365 nm and 440 nm, respectively. Non-linear regression analysis was employed to calculate IC50 values using the GraphPad Prism software. […] Reactions without the enzyme or the inhibitor were used to define 0% and 100% of the HDAC activity, respectively.

[9] abbreviates: 10 μM Ac-GAK(Ac)-AMC substrate, mean of two experiments ± SEM.

HDAC4, sequence (P56524 whole entry): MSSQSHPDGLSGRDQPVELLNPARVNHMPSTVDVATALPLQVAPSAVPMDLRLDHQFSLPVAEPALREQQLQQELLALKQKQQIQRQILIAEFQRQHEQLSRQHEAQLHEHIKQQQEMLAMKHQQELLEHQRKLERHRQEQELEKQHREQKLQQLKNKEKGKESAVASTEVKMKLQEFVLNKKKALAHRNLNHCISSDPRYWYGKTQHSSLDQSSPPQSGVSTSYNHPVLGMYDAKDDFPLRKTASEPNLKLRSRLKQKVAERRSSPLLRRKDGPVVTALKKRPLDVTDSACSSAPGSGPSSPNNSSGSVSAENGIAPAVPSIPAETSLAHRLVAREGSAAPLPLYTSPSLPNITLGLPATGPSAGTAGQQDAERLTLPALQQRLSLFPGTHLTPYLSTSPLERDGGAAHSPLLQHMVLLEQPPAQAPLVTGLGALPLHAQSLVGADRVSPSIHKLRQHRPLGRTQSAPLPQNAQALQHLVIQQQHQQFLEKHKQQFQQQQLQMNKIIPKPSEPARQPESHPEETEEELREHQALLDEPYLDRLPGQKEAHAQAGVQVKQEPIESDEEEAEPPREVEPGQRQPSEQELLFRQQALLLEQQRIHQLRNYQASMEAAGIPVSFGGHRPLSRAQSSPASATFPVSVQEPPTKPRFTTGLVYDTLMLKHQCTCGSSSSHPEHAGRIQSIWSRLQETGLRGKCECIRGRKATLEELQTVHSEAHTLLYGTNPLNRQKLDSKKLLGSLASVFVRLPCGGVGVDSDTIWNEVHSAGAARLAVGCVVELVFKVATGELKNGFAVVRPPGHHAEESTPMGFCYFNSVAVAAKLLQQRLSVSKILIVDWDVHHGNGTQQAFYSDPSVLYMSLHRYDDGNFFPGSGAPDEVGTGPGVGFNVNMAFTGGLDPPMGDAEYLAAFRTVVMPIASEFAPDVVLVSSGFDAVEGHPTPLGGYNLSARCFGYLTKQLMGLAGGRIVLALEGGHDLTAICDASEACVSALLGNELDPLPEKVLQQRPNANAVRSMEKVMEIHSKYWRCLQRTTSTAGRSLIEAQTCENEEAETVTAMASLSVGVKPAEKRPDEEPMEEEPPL
T3 sequence (Q13547 whole entry): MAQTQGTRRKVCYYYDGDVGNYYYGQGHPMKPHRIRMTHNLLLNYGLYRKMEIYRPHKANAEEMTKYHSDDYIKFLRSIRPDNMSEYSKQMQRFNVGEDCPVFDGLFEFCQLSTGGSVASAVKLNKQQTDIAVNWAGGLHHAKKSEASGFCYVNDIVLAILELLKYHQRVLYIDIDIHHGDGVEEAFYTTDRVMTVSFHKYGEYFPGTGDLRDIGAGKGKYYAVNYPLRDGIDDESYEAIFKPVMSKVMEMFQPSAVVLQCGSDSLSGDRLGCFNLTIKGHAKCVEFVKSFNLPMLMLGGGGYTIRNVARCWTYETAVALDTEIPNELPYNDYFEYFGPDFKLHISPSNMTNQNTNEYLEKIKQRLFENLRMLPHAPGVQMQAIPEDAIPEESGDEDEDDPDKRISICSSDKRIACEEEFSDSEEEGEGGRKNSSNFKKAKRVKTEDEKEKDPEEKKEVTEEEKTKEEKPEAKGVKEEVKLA

As to `NCc1ccc(NC(=O)N(CCCCO)Cc2ccc(C(=O)NO)cc2)cc1` [Compound 6a, 4-((3-(4-(Aminomethyl)phenyl)-1-(4-hydroxybutyl)ureido)methyl)-N-hydroxybenz-amide], the “SI (HDAC6 selectivity index over HDAC7)” value in series [1] is listed as 3,680. Also, the IC50 was 1470 nM in series [1]; 176 ± 21 nM in series [4]; 117 ± 10 nM in series [5] (setting [9]); 117 ± 10 nM in series [5] (Table 2); 3.42 µM in series [6]; 8.25 µM in series [8]. In addition, in series [2], the “SGF stability (t1/2, h)” value is reported as over 5 h. Besides, the “Human plasma stability (t1/2, h)” value in series [3] is over 5 h. In addition, the “SI (HDAC6 selectivity index over HDAC2)” value in series [4] is listed as 440. The “SI (HDAC6 selectivity index over HDAC1)” value in series [5] came to 293. In addition, in series [5] (ratio HDAC1 IC50 / HDAC6 IC50, Table 2), the HDAC1/6 amounted to 293. For the same molecule, in series [6], the “SI (HDAC6 selectivity index over HDAC5)” value is on record as 8,550. In addition, the “Human plasma binding (%)” value in series [7] and in series [7] (listed as Suprastat) was 1.9% in each case. For the same molecule, in series [8], the “SI (HDAC6 selectivity index over HDAC4)” value is listed as 20,600.

With `CCCCN(Cc1ccc(C(=O)NO)cc1)C(=O)Nc1ccc(CN)cc1` [Compound 6b, 4-((3-(4-(Aminomethyl)phenyl)-1-butylureido)methyl)-N-hydroxybenzamide], the “SI (HDAC6 selectivity index over HDAC7)” value in series [1] is recorded as 10,000. Further, the concentration for half-maximal inhibition (IC50) in series [1] is 9000 nM; in series [4] it was 281 ± 28 nM; in series [5] (setting [9]), 80 ± 45 nM; in series [6], 10.1 µM; in series [8], 23.1 µM. For the same molecule, the “SGF stability (t1/2, h)” value in series [2] is given as over 5 h. Also, the “Human plasma stability (t1/2, h)” value in series [3] was over 5 h. Besides, the “SI (HDAC6 selectivity index over HDAC2)” value in series [4] stood at 312. Also, in series [5], the “SI (HDAC6 selectivity index over HDAC1)” value is on record as 89. Besides, the “SI (HDAC6 selectivity index over HDAC5)” value in series [6] is 11,200. The “Human plasma binding (%)” value in series [7] is recorded as “approximately 50%”. In addition, the “SI (HDAC6 selectivity index over HDAC4)” value in series [8] is recorded as 25,700.

As for `O=C(NO)c1ccc(CN(CCCCO)C(=O)Nc2ccccc2)cc1` [Compound 6c, reference compound], the IC50 in series [1] came out at 1930 nM; in series [4] it was 268 ± 16 nM; in series [5] (setting [9]), 148 ± 9 nM; in series [6], 9.13 µM; in series [8], 14 µM. Moreover, in series [2], the “SGF stability (t1/2, h)” value is reported as over 5 h. In addition, the “Human plasma stability (t1/2, h)” value in series [3] was over 5 h. In addition, in series [4], the “SI (HDAC6 selectivity index over HDAC2)” value was found to be 536. Also, in series [5], the “SI (HDAC6 selectivity index over HDAC1)” value turned out to be 296. Moreover, the “Human plasma binding (%)” value in series [7] is recorded as “approximately 50%”.

The IC50 is the point on the concentration scale where inhibition reaches its midpoint.
